In ChEMBL document CHEMBL1150487, “Cyanoguanidine bioisosteres in potassium channel openers: Evaluation of 3,4-disubstituted-1,2,5-thiadiazole-1-oxides” (Bioorg Med Chem Lett, 1996):

Legend:
Format in all cases: functional
Rattus norvegicus [1] = organism: Rattus norvegicus; assay: Membrane potential change (fluorescence-based in vitro assay using DIBAC4 as indicator) in A-10 smooth muscle cell, to estimate potassium channel opening activity at 10 uM
Rattus norvegicus [2] = organism: Rattus norvegicus; assay: Membrane potential change (fluorescence-based in vitro assay using DIBAC4 as indicator) in A-10 smooth muscle cell, to estimate potassium channel opening activity at 1 uM
Rattus norvegicus [3] = organism: Rattus norvegicus; assay: Membrane potential change (fluorescence-based in vitro assay using DIBAC4 as indicator) in A-10 smooth muscle cell, to estimate potassium channel opening activity at 0.1 uM

Row | Structure (SMILES) | Change (Rattus norvegicus [1]) [%] | Change (Rattus norvegicus [2]) [%] | Change (Rattus norvegicus [3]) [%]
1 | [O-][s+]1nc(NCc2ccccc2)c(Nc2cc(Cl)cc(Cl)c2)n1 (stereo unspecified) | 0.84 | -0.91 | 7.83
2 | [O-][s+]1nc(NCCCc2ccccc2)c(Nc2cc(Cl)cc(Cl)c2)n1 (stereo unspecified) | 14.1 | -19.7 | –
3 | CC(C)(C)CNc1n[s+]([O-])nc1Nc1cc(Cl)cc(Cl)c1 (stereo unspecified) | 1.84 | 5.58 | 1.77
4 | CCCNc1n[s+]([O-])nc1Nc1ccccc1 (stereo unspecified) | -1.05 | -4.86 | -3.75
5 | [O-][s+]1nc(Nc2cc(Cl)cc(Cl)c2)c(NC2CCCCC2)n1 (stereo unspecified) | -17.7 | -2.39 | 2.05
6 | CCC(C)Nc1n[s+]([O-])nc1Nc1cc(Cl)cc(Cl)c1 (stereo unspecified) | -19 | 1.42 | -0.43
7 | [O-][s+]1nc(NCCCCc2ccccc2)c(Nc2cc(Cl)cc(Cl)c2)n1 (stereo unspecified) | 4.02 | -6.18 | -7.2
8 | Nc1n[s+]([O-])nc1Nc1cc(Cl)cc(Cl)c1 (stereo unspecified) | -4.58 | -4.81 | 10.2
9 | [O-][s+]1nc(Nc2cc(Cl)cc(Cl)c2)c(NC2CC2)n1 (stereo unspecified) | -3.96 | -1.1 | 0.95
10 | [O-][s+]1nc(Nc2cc(Cl)cc(Cl)c2)c(NC2CCC2)n1 (stereo unspecified) | -21.8 | -4.23 | -5.89
11 | CCCCNc1n[s+]([O-])nc1Nc1cc(Cl)cc(Cl)c1 (stereo unspecified) | -44.7 | -10.3 | 1.29
12 | CCCNc1n[s+]([O-])nc1Nc1cc(Cl)cc(Cl)c1 (stereo unspecified) | -11.1 | 5.85 | 8.06
13 | CC(C)CCNc1n[s+]([O-])nc1Nc1cc(Cl)cc(Cl)c1 (stereo unspecified) | -45.5 | -12 | 10.7
14 | CCCCCNc1n[s+]([O-])nc1Nc1cc(Cl)cc(Cl)c1 (stereo unspecified) | -26.3 | -10.6 | 8.48
15 | CNc1n[s+]([O-])nc1Nc1cc(Cl)cc(Cl)c1 (stereo unspecified) | -33.6 | -25.1 | -16
16 | CCCCCNc1n[s+]([O-])nc1Nc1ccccc1 (stereo unspecified) | -5.23 | -7.68 | -3.76
17 | CC(C)Nc1n[s+]([O-])nc1Nc1cc(Cl)cc(Cl)c1 (stereo unspecified) | -9.36 | -5.37 | 2.12
18 | [O-][s+]1nc(Nc2cc(Cl)cc(Cl)c2)c(NC2CCCC2)n1 (stereo unspecified) | -4.17 | -1.36 | -5.82
19 | [O-][s+]1nc(NCCc2ccccc2)c(Nc2cc(Cl)cc(Cl)c2)n1 (stereo unspecified) | – | -1.29 | -1.01
20 | CC(N/C(=N\C#N)Nc1ccncc1)C(C)(C)C (stereo unspecified) | -57.4 | -45.6 | -5.89
21 | CC(C)CNc1n[s+]([O-])nc1Nc1cc(Cl)cc(Cl)c1 (stereo unspecified) | 10.8 | -3.59 | -1.32
